Read-outs that look alike come from different tables or passages of the source.
Assays:
[1] = system: MRSA (SA86); conditions: agar plate two-fold dilution, CLSI, 35 °C, 18 h
Experimental: (§1) For the determination of the minimum inhibitory concentration (MIC), according to the CLSI standard, a two-fold dilution method with a plate and a Denlay multi-point inoculator were used to conduct the drug sensitivity test. The test bacteria were enriched with MH broth or brain heart infusion. The drug solution was diluted two-fold with MH broth to prepare various required concentrations, and appropriate amounts were added to the plates respectively. After the MH agar medium was melted, it was quantitatively poured into the plates containing the drug solution and mixed uniformly. The final concentrations of the samples were: 128, 64, 32, 16, 8, 4, 2, 1, 0.5, 0.25, 0.125, 0.063, 0.031, 0.016, 0.008, 0.004 μg/mL, respectively. The test bacteria were inoculated (inoculation amount was 10^4 cfu/point) and then incubated at constant temperature of 35 □. The results were observed after 18 h. The minimum concentration of the drug contained in the sterile growth plate was the minimum inhibitory concentration (MIC). Selection of strain types: MRSA (SA86 and SA88), MSSA (ATCC29213), Enterococcus (ET6) and Streptococcus faecalis (SF).

[2] = system: MRSA (SA88); conditions: agar plate two-fold dilution, CLSI, 35 °C, 18 h
Experimental: as §1

[3] = system: MSSA (ATCC29213); conditions: Test Method 1: agar plate two-fold dilution, CLSI, 35 °C, 18 h
Experimental: as §1

[4] = system: Enterococcus (ET6); conditions: agar plate two-fold dilution, CLSI, 35 °C, 18 h
Experimental: as §1

[5] = system: Streptococcus faecalis (SF); conditions: agar plate two-fold dilution, CLSI, 35 °C, 18 h
Experimental: as §1

[6] = system: MRSA (ATCC43300); conditions: 96-well plate, CAMHB, 35±2 °C, 20-24 hours, highest concentration 64 μg/mL
Experimental: (§2) For the determination of the minimum inhibitory concentration (MIC), according to the CLSI standard, the minimum inhibitory concentration of 3 ATCC standard strains (2 strains of Staphylococcus aureus and 1 strain of Enterococcus faecium) was tested by two independent repeated experiments. Compounds were diluted two-fold in a 96-well plate from the highest detection concentration of 64 μg/mL. The test plate was placed in a common incubator and incubated at 35±2° C. for 20-24 hours. The growth of bacteria in the wells was observed and recorded. Inoculation method: 5-10 bacterial single colonies from the solid medium plate resuspended in 500 μL of 1.02×CAMHB, and then OD600 was adjusted to 0.1-0.15 with a spectrophotometer; then the bacteria were diluted 300-fold with 1.02×CAMHB to ˜2×10^5 CFU/ml (stepwise dilution, first 10-fold and then 30-fold), and the prepared bacterial inoculum was inoculated in 96-well plate within 15 minutes, the number of inoculated bacteria could be obtained by plate count. Colony count: the inoculated bacteria was diluted with liquid medium from 10^−1 to 10^−3 (such as 100 μL of bacterial inoculum+900 μL of 1.02×CAMHB); 100 μl of the above bacterial dilution was evenly spread on a TSA or TSA II plate, with 2 replicates per dilution. After the medium was absorbed by TSA or TSA II for 10 minutes, the plate was inverted and cultured at 35±2° C. for 24 hours in an incubator. Record of minimum inhibitory concentration and statistics of colony count: the minimum inhibitory concentration of each compound was recorded referring to the CLSI standard; the number of colonies of bacterial inoculum of different dilutions on the TSA or TSA II plate was counted and the amount of bacterial inoculation was calculated. Selection of strain types: MRSA (ATCC43300), MSSA (ATCC29213) and VRE (ATCC700221).

[7] = system: MSSA (ATCC29213); conditions: Test Method 2: 96-well plate, CAMHB, 35±2 °C, 20-24 hours, highest concentration 64 μg/mL
Experimental: as §2

[8] = system: VRE (ATCC700221); conditions: 96-well plate, CAMHB, 35±2 °C, 20-24 hours, highest concentration 64 μg/mL
Experimental: as §2

Compound | In vitro antibacterial activity MIC, MRSA SA86 [1] [µg/mL] | In vitro antibacterial activity MIC, MRSA SA88 [2] [µg/mL] | In vitro antibacterial activity MIC, MSSA(ATCC29213) [3] [µg/mL] | In vitro antibacterial activity MIC, Enterococcus (ET6) [4] [µg/mL] | In vitro antibacterial activity MIC, Streptococcus faecalis(SF) [5] [µg/mL] | In vitro antibacterial activity MIC, MRSA(ATCC43300) [6] [µg/mL] | In vitro antibacterial activity MIC, MSSA(ATCC29213) [7] [µg/mL] | In vitro antibacterial activity MIC, VRE(ATCC700221) [8] [µg/mL]
CC[C@H](C)[C@H](NC(=O)[C@@H](Cc1ccccc1)NC)C(=O)N[C@@H](CO)C(=O)N[C@H](CCC(N)=O)C(=O)N[C@@H](C(=O)N[C@H](C(=O)N[C@@H](CO)C(=O)N[C@H]1C(=O)N[C@@H](C)C(=O)N[C@]2(C[C@@H]2CC(F)F)C(=O)N[C@@H]([C@@H](C)CC)C(=O)N[C@H]1C)[C@@H](C)CC)[C@@H](C)CC.O=C(O)C(F)(F)F [Example 2] | 4 | 2 | 4 | 4 | 8 |  |  | 
C=C[C@@H]1C[C@@]12NC(=O)[C@H](C)NC(=O)[C@H](NC(=O)[C@H](CO)NC(=O)[C@@H](NC(=O)[C@H](NC(=O)[C@@H](CCC(N)=O)NC(=O)[C@H](CO)NC(=O)[C@@H](NC(=O)[C@@H](Cc1ccccc1)NC)[C@@H](C)CC)[C@@H](C)CC)[C@@H](C)CC)[C@H](C)NC(=O)[C@H]([C@@H](C)CC)NC2=O.O=C(O)C(F)(F)F [Example 4] | 8 | 4 | 4 | 8 | 8 |  |  | 
CC[C@H](C)[C@H](NC(=O)[C@@H](Cc1ccccc1)NC)C(=O)N[C@@H](CO)C(=O)N[C@H](CCC(N)=O)C(=O)N[C@@H](C(=O)N[C@H](C(=O)N[C@@H](CO)C(=O)N[C@H]1C(=O)N[C@@H](C)C(=O)NC2(CC2)C(=O)N[C@@H]([C@@H](C)CC)C(=O)O[C@H]1C)[C@@H](C)CC)[C@@H](C)CC.O=C(O)C(F)(F)F [Example 5] | 4 |  | 4 | 8 | 8 |  |  | 
CC[C@H](C)[C@H](NC(=O)[C@@H](Cc1ccccc1)NC)C(=O)N[C@@H](CO)C(=O)N[C@H](CCC(N)=O)C(=O)N[C@@H](C(=O)N[C@H](C(=O)N[C@@H](CO)C(=O)N[C@H]1C(=O)N[C@@H](C)C(=O)NC2(CCC2)C(=O)N[C@@H]([C@@H](C)CC)C(=O)O[C@H]1C)[C@@H](C)CC)[C@@H](C)CC.O=C(O)C(F)(F)F [Example 6] | 8 |  | 8 |  |  |  |  | 
CC[C@H](C)[C@H](NC(=O)[C@@H](Cc1ccccc1)NC)C(=O)N[C@@H](CO)C(=O)N[C@H](CCC(N)=O)C(=O)N[C@@H](C(=O)N[C@H](C(=O)N[C@@H](CO)C(=O)N[C@H]1C(=O)N[C@@H](C)C(=O)NC2(CCCCC2)C(=O)N[C@@H]([C@@H](C)CC)C(=O)O[C@H]1C)[C@@H](C)CC)[C@@H](C)CC.O=C(O)C(F)(F)F [Example 8] | 8 | 4 | 8 |  |  |  |  | 
CC[C@H](C)[C@H](NC(=O)[C@@H](Cc1ccccc1)NC)C(=O)N[C@@H](CO)C(=O)N[C@H](CCC(N)=O)C(=O)N[C@@H](C(=O)N[C@H](C(=O)N[C@@H](CO)C(=O)N[C@H]1C(=O)N[C@@H](C)C(=O)NC2(CCCCCC2)C(=O)N[C@@H]([C@@H](C)CC)C(=O)O[C@H]1C)[C@@H](C)CC)[C@@H](C)CC.O=C(O)C(F)(F)F [Example 9] | 4 |  | 4 | 4 | 8 |  |  | 
CC[C@H](C)[C@H](NC(=O)[C@@H](Cc1ccccc1)NC)C(=O)N[C@@H](CO)C(=O)N[C@H](CCC(N)=O)C(=O)N[C@@H](C(=O)N[C@H](C(=O)N[C@@H](CO)C(=O)N[C@H]1C(=O)N[C@@H](C)C(=O)NC(C)(C)C(=O)N[C@@H]([C@@H](C)CC)C(=O)O[C@H]1C)[C@@H](C)CC)[C@@H](C)CC.O=C(O)C(F)(F)F [Example 26] |  |  |  |  |  | 32 | 64 | >64

Source: patent US12435108B2, “Teixobactin analogue and use thereof” (SUNSHINE LAKE PHARMA CO., LTD., priority 2019, dated 2025)
